Laboratory results published in US20140045807A2, “THE USE OF 3-METHOXY-PREGNENOLONE FOR THE PREPARATION OF A DRUG FOR TREATING A TRAUMATIC BRAIN INJURY” (priority 2004, published 2014).

Legend:
[1] = biological target: T1, human progesterone receptor(PR) (Homo sapiens, UniProt P06401); test: Test of progesterone receptor antagonist activity (luciferase transactivation, HEK293T); assay type: cell-based; conditions: with progesterone (1 nM), increasing amounts
T1 construct: expressed in transfected cells; host or cells: HEK293T
T1 sequence (P06401 1-933): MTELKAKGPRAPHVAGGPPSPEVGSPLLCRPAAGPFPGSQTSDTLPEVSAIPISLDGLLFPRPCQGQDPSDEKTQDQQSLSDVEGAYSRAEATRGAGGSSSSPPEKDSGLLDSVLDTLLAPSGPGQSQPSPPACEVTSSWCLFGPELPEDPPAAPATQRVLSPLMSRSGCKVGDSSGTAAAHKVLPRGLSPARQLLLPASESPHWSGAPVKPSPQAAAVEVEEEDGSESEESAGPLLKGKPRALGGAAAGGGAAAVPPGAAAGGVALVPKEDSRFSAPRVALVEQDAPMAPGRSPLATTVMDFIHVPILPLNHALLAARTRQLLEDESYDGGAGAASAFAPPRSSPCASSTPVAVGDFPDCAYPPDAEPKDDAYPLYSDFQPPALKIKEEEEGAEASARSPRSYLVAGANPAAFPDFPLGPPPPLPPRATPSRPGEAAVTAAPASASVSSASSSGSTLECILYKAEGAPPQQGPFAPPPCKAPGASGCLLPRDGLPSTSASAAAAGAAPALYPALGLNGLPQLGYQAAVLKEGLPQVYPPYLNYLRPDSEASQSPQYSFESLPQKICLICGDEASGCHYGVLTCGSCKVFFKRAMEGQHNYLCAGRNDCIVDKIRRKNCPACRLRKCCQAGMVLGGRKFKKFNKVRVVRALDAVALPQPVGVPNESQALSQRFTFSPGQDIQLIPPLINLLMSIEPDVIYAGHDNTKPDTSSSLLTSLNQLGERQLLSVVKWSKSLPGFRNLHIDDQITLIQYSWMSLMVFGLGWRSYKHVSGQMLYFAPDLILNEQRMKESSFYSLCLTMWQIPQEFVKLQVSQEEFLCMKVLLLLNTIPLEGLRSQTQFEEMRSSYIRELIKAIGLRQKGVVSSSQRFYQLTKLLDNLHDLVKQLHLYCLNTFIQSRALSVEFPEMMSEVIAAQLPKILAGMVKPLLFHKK
Method: The main experimental setting used is the following: HEK293T cells were transiently transfected, using calcium phosphate precipitation technology, with expression vectors pSG5hPR (which permits expression of human progesterone receptor(PR)), pFC31-luc (contains the luciferase gene under the control of the MMTV promoter, which is in turn activated by binding of a progestin to progesterone receptor) and pcbetagal (which permits expression of betagalactosidase), and cultured during 24 hours with increasing amounts of various compositions: • 1. […] Test of progesterone receptor […] activity: transfected cells were cultured with progesterone (1 nM) and increasing amounts of RU486 (a well-known progesterone receptor antagonist) or 3-methoxy-pregnenolone. • With this setting, a compound with progesterone receptor antagonist activity competes with progesterone for the occupation of progesterone receptor and results in a progressive loss of transactivation activity when the amount of this compound is increased compared to progesterone.

[2] = system: Sprague Dawley rats in the FST; test: Forced swimming test (FST); assay type: in vivo, rat; conditions: 10 mg/kg subcutaneously, 24, 5, 1 h before testing
Source text: (A) 3-methoxy-PREG (43B) decreased rat immobility in the FST showing antidepressant activity. Results are expressed as mean±SEM (n=6-14). One-way ANOVA: Treatment (F5, 46: 4.30 P<0.01). ***P<0.001, *P<0.05 vs. water and sesame oil (Fisher LSD test). […] Results are expressed as mean±SEM (n=6-14). One-way ANOVA: Treatment (F5, 46: 3.57 P<0.01). **P<0.01, *P<0.05 vs. water and sesame oil (Fisher LSD test). […] One-way ANOVA: Treatment (F5, 46: 3.57 P<0.01). **P<0.01, *P<0.05 vs. water and sesame oil (Fisher LSD test).
Drugs were administered following the traditional dosing regimen used in the FST consisting of three injections: 24, 5, 1 h before testing.
The FST is currently the most widely used animal model for assessing depression related behavior and antidepressant drug activity in rodents (Cryan et al., Neubiorev. 2005). Rats are placed in an inescapable cylinder of water where they develop an immobile posture believed to reflect a “depressive”-like state. The time rats spend immobile is decreased by drugs exerting antidepressant activity.
Additional behaviors can be detected in the FST; namely, climbing and swimming. It has been shown that swimming behavior is sensitive to SSRIs such as fluoxetine whereas climbing is sensitive to norepinephrine re-uptake inhibitors (NRI) such as desipramine.

CCI-injured animals = test: Histological analysis of the hippocampus size after CCI; assay type: in vivo, rat; conditions: 10 mg/kg and 20 mg/kg, first injection 2 h after TBI, day 35
Method: FIG. 18: Size of the hippocampus of CCI-injured animals, receiving the first injection of MAP4343 (or vehicle) 2 h after TBI. Data are expressed in percentage of the non-injured hippocampus of Dose 0 (vehicle) animals. ***: p<0.001 Dose 0 injured vs non-injured hippocampus; $: p<0.05 vs Dose 0 injured hippocampus.
CCI was performed with an electromagnetic impact device as described (MyNeurolab, St. Louis, Mo.; Brody et al. 2007). Anesthesized rats were subjected to a single right lateral CCI, with the following parameters: impact centered 4.0 mm anterior to lambda and 4.5 mm […] of midline, within the craniotomy of the animal. The impact was set at a velocity of 4 m/s with a sustained depression of 200 ms, using a 5.0 mm tip.
Frozen sections were stained with cresyl violet. For each section analyzed, the size of the hippocampus was determined by first outlining all remaining tissue of each section taken at 500 μm intervals through the lesion (right hemisphere) or contra lateral hemisphere, thus providing a total tissue area (mm2) of the two hemispheres for each section. Then, the areas of sections were summed per hemisphere.

CO[C@H]1CC[C@@]2(C)C(=CC[C@H]3[C@@H]4CC[C@H](C(C)=O)[C@@]4(C)CC[C@@H]32)C1 [3-methoxy-PREG, 3β-methoxy-pregna-5-ene-20-one]
progesterone receptor antagonist activity [1]: weak progesterone receptor antagonist | rat climbing behavior in the FST [2]: not changed | rat immobility in the FST [2]: significantly decreased | rat swimming in the FST [2]: significantly increased | size of the injured hippocampus (CCI-injured animals): significantly increases the size of the injured hippocampus
